For test [1], the target named is 5-hydroxytryptamine receptor 2A (Rattus norvegicus, UniProt P14842). Nature of the test: Binding affinity towards rat 5-hydroxytryptamine 2A receptor was evaluated using [3H]- ketanserin as radioligand.
Test [2] can be described thus: Selectivity ratio of IC50 values of 5-hydroxytryptamine 1A receptor vs 5-hydroxytryptamine 2 receptor.
Test [3] can be described thus: Selectivity ratio of IC50 values of 5-hydroxytryptamine 1A receptor vs dopamine receptor D2.
In test [4] the target is T1, Adrenergic receptor alpha-2 (Rattus norvegicus, UniProt P22086+P19328+P22909).
T1 sequence (P22086 whole entry): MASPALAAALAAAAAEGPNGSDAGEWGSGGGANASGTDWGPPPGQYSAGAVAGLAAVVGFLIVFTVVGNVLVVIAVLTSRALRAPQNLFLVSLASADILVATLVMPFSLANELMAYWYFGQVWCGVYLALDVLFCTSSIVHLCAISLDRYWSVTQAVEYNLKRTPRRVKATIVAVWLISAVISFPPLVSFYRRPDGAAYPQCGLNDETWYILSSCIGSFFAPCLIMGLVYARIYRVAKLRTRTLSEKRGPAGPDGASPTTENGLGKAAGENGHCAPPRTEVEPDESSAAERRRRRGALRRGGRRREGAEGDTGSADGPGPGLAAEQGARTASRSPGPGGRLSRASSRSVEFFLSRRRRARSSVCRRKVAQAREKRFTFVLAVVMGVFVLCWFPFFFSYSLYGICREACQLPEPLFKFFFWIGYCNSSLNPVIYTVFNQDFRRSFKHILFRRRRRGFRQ
T1 sequence (P19328 whole entry): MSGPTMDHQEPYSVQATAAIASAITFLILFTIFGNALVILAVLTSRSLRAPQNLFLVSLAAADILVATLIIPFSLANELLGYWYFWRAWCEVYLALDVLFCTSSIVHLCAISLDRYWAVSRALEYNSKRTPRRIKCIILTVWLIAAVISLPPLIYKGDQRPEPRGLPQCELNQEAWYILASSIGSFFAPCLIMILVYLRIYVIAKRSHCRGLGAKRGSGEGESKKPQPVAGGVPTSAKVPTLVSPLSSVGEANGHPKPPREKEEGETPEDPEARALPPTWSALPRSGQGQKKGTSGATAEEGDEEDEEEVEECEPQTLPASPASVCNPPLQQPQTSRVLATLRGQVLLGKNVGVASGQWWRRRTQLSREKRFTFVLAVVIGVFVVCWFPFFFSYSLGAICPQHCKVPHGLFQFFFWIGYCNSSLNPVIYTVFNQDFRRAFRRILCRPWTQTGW
T1 sequence (P22909 whole entry): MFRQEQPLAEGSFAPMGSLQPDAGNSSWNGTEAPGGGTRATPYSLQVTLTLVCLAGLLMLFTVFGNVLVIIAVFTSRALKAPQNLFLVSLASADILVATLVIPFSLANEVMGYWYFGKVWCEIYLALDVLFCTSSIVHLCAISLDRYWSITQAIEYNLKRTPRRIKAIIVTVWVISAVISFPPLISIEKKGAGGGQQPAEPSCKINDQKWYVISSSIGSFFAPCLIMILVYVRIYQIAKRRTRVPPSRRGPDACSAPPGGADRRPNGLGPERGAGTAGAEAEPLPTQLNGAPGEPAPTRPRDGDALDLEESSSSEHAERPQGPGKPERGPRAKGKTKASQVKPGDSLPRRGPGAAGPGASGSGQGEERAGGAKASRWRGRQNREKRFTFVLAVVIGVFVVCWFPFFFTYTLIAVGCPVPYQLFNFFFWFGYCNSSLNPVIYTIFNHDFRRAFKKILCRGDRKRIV
The experiment in a line: Binding affinity towards rat Alpha-2 adrenergic receptor was evaluated using [3H]- yohimbine as radioligand. The format is protein assay.

A short description of test [5]: Selectivity ratio of IC50 values of 5-hydroxytryptamine 1A receptor vs Alpha-2 adrenergic receptor.
In test [6] the target is T2, Adrenergic receptor alpha-1 (Rattus norvegicus, UniProt P15823+P23944+P43140).
T2 sequence (P15823 whole entry): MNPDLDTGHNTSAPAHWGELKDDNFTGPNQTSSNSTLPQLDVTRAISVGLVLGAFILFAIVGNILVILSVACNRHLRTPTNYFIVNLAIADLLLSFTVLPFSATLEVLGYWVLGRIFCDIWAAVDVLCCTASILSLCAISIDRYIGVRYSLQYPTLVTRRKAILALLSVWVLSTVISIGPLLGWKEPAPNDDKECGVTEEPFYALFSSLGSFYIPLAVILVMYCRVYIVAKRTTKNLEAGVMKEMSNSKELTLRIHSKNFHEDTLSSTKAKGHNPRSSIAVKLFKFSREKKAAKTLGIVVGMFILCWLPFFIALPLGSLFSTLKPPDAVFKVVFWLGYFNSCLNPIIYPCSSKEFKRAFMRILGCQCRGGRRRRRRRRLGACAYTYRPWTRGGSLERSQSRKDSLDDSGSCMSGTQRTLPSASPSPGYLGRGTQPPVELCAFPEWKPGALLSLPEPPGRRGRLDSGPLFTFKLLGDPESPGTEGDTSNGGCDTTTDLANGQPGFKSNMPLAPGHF
T2 sequence (P23944 whole entry): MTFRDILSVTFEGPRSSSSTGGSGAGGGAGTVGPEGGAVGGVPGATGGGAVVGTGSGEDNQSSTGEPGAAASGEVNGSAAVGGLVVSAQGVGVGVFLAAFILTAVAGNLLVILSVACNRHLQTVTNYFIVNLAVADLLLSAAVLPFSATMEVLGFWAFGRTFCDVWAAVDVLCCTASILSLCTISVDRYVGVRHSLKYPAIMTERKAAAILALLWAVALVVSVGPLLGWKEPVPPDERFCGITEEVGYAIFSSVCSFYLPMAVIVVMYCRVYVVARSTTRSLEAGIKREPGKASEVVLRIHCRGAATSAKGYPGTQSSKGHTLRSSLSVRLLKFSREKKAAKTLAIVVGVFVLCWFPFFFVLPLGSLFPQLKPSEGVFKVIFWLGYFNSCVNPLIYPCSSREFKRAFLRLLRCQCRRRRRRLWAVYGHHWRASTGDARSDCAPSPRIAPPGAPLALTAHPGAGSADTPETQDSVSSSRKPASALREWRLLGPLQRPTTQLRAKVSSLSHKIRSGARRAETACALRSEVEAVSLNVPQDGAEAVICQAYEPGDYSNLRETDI
T2 sequence (P43140 whole entry): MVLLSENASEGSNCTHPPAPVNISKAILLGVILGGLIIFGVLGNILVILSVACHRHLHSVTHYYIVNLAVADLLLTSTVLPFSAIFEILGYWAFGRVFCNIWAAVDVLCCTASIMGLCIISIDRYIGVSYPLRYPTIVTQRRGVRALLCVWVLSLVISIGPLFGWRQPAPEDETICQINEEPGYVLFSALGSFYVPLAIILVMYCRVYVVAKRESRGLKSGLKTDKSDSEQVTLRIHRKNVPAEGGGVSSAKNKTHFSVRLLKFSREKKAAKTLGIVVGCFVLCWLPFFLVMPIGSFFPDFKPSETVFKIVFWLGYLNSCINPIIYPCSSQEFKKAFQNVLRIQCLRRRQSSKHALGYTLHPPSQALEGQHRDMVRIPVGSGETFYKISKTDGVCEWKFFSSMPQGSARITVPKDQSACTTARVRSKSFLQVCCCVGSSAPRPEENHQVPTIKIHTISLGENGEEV
Nature of the test: Binding affinity towards rat Alpha-1 adrenergic receptor was evaluated using [3H]- prazosin as radioligand. The format is protein assay.

The target in a further test is D(2) dopamine receptor (Rattus norvegicus, UniProt P61169). Nature of the test: Binding affinity towards rat Dopamine receptor D2 was evaluated using [3H]- spiroperidol as radioligand.
Test [7] concerns the target T3, 5-hydroxytryptamine receptor 1A (Rattus norvegicus, UniProt P19327).
T3 sequence (P19327 whole entry): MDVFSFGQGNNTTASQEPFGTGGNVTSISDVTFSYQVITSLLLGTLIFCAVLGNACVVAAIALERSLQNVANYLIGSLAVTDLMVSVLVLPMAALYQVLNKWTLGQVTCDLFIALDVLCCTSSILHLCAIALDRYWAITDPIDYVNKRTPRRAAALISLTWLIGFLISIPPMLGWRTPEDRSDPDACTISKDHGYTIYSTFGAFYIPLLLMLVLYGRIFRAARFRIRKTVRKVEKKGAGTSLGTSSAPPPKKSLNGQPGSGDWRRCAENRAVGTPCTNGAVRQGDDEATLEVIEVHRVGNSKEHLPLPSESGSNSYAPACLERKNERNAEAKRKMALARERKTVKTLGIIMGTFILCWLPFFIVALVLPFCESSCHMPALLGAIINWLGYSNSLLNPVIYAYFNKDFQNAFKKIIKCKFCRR
The experiment in a line: Binding affinity towards rat 5-hydroxytryptamine 1A receptor was evaluated using [3H]8-OH-DPAT as radioligand.

Experimental findings from ChEMBL document CHEMBL1129592 (J Med Chem, 1996) are described below.

pIC50: −log10 of the molar value.

D(2) dopamine receptor, sequence (P61169 whole entry): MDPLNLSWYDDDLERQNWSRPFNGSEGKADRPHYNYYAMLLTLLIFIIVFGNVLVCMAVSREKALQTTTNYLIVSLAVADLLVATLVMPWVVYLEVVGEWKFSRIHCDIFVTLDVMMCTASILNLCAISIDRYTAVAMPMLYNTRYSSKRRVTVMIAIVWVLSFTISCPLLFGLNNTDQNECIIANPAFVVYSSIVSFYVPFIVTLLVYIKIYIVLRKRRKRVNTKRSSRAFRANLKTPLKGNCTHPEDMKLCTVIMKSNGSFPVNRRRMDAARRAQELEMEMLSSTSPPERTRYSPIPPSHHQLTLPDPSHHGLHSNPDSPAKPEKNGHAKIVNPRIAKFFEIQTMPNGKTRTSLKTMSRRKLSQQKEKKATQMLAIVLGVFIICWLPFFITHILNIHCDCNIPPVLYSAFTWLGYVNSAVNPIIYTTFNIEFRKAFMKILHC
5-hydroxytryptamine receptor 2A, sequence (P14842 whole entry): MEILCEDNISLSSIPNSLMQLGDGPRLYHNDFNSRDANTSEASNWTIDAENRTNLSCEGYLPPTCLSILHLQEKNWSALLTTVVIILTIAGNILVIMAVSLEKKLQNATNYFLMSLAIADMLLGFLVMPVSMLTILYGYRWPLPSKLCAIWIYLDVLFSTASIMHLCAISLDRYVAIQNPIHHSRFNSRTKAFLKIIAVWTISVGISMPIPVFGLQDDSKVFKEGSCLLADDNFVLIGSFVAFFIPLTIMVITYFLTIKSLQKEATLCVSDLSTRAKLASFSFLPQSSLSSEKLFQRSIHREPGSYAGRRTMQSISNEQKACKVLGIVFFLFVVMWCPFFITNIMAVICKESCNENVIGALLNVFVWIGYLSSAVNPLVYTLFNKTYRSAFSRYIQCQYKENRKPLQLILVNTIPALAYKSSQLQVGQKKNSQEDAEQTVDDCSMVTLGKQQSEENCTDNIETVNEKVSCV

Broadly, the pIC50 is −log10 of the IC50, conventionally taken in molar units. A high value points to a low IC50. For the compound `COc1cccc2c1CCC=C2CCCN1CCN(c2ccccc2)CC1`, in test [1], the pIC50 is 6.69. Besides, the results for the Selectivity ratio in test [2] and in test [3] were 11 and 17, respectively.
`COc1ccccc1N1CCN(CCCC2CCCc3c(OC)cccc32)CC1` (stereo not drawn) gave a negative logarithm of the IC50 (pIC50) in test [1] of 6.48.
Usually IC50 stands for the point on the concentration scale where inhibition reaches its midpoint. Higher therefore signals a need for much substance. Consider `COc1cccc2c1CCCC2CCCCN1CCN(c2ccccc2)CC1` (stereo not drawn), for which the IC50 was determined as 770 nM in test [4] and 130 nM in test [6]. The pIC50 in test [1] is 6.38; on D(2) dopamine receptor, 6.96; in test [7] it was 7.82. Further, the Selectivity ratio in test [5] came to 51; in test [2], 28; in test [3] it was 7.
`COc1ccc2c(c1)CCCC2CCCN1CCN(c2ccccc2)CC1` (stereo not drawn): the IC50 is given as 170 nM in test [4] and 45 nM in test [6]. The negative logarithm of the IC50 (pIC50) in test [1] was 6.80; on D(2) dopamine receptor, 7.04. Besides, the Selectivity ratio came out at 31 in test [5], 30 in test [2] and 17 in test [3].
For the compound `COc1cccc2c1CCC/C2=C\CCN1CCN(c2ccccc2)CC1`, the figures for the IC50 in test [4] and in test [6] were 290 nM and 120 nM, respectively. For the same compound, the negative logarithm of the IC50 (pIC50) in test [1] was 6.24; at D(2) dopamine receptor, 7.00. For the same compound, the Selectivity ratio stood at 15 in test [5], 31 in test [2] and 5 in test [3].
Consider `COc1cccc2c1CCCC2CCCN1CCN(c2ccccc2)CC1` (stereo not drawn), for which the negative logarithm of the IC50 (pIC50) in test [1] was 6.64. The figures for the Selectivity ratio in test [5], in test [2] and in test [3] were 520, 460 and 220, respectively.
As for `COc1cccc2c1CCCC2CCCN1CCN(c2ccccn2)CC1` (stereo not drawn), in test [1], the negative logarithm of the IC50 (pIC50) is 6.60. Further, the Selectivity ratio was found to be 89 in test [5], 462 in test [2] and 259 in test [3].
In test [1], `CCCN(CCC)C1CCc2cccc(O)c2C1` (stereo not drawn) [8-OH-DPAT] showed a negative logarithm of the IC50 (pIC50) below 5.00.
Take `COc1ccc2c(c1)C(CCCN1CCN(c3ccccc3)CC1)=CCC2`: the results for the pIC50 (in test [1]; on D(2) dopamine receptor) were 6.92 and 6.80, respectively. Moreover, the figures for the Selectivity ratio in test [2] and in test [3] were 0.8 and 1, respectively. Besides, the IC50 in test [6] is on record as 173 nM.
`COc1cccc2c1CCC(CCN1CCN(c3ccccc3)CC1)C2` (stereo not drawn): the IC50 in test [4] is 600 nM; in test [6], 100 nM. Besides, the negative-log IC50 (pIC50) in test [1] was 6.80; at D(2) dopamine receptor it was 6.89; in test [7], 7.27. The Selectivity ratio stood at 11 in test [5], 3 in test [2] and 2 in test [3].
Turning to `COc1cccc2c1CCCC2CCN1CCN(c2ccccc2)CC1` (stereo not drawn), the IC50 in test [4] is 22 nM; in test [6], 84 nM. For the same compound, the pIC50 in test [1] was 7.92; on D(2) dopamine receptor, 6.68; in test [7] it was 6.85. Also, the Selectivity ratio in test [5] turned out to be 0.2; in test [2], 0.1; in test [3] it was 2.
On to `COc1ccc2c(c1)CCC(CCN1CCN(c3ccccc3)CC1)=C2`, for which the IC50 in test [4] turned out to be 130 nM; in test [6] it was 88 nM. For the same compound, the pIC50 in test [1] was 7.25; at D(2) dopamine receptor it was 6.77; in test [7], 8.09. The results for the Selectivity ratio in test [5], in test [2] and in test [3] were 16, 7 and 24, respectively.
On to `COc1cccc2c1CCC(CCN1CCN(c3ccccc3)CC1)=C2`, for which the values for the concentration for half-maximal inhibition (IC50) in test [4] and in test [6] were 357 nM and 194 nM, respectively. The pIC50 in test [1] was 6.62; on D(2) dopamine receptor, 6.56; in test [7], 6.72. Besides, the Selectivity ratio in test [5] amounted to 2; in test [2], 1; in test [3], 1.
As for `COc1cccc2c1C(CCCN1CCN(c3ccccc3)CC1)CCC2` (stereo not drawn), the 50% inhibitory concentration (IC50) in test [4] is recorded as 140 nM; in test [6] it was 130 nM. Further, the pIC50 in test [1] was 6.21; at D(2) dopamine receptor, 7.21; in test [7] it was 7.25. The figures for the Selectivity ratio in test [5], in test [2] and in test [3] were 3, 11 and 1, respectively.
Take `COc1ccc2c(c1)C=C(CCN1CCN(c3ccccc3)CC1)CC2`: the half-maximal inhibitory concentration (IC50) is 122 nM in test [4] and 58 nM in test [6]. In addition, the negative-log IC50 (pIC50) in test [1] is 6.97; at D(2) dopamine receptor it was 6.87; in test [7], 8.14. In addition, the Selectivity ratio in test [5] was found to be 18; in test [2], 15; in test [3] it was 22.
